Measurements published in patent US10067143B2, “Ubiquitination assay” (ITI Scotland Limited, priority 2010, dated 2018).

System: T1, SCF^Skp2/Cks1
T1 construct: 6His-Skp2-(isoform 1, hu,FL),; GST-Skp1-(hu,FL), 6His-Cul1-; (hu,FL), UT-Rbx1-(hu,FL); 6His-Cks1-(hu,FL); 6His (N); GST (N); made in house
Test: 'Live' SCF^Skp2/Cks1 (E3) p27 ubiquitination assay, ECL
Assay type: biochemical, human
Conditions: for shows up as inhibitor in R140 kinase inhibitor panel / IC50, E3 (SCF^Skp2/Cks1) assay ECL: 60 minute incubation; for shows up as inhibitor in R140 kinase inhibitor panel / inhibition in E3 assay, panel of 41 inhibitors: final E3 assay conditions; for IC50, E3 (SCF^Skp2/Cks1) assay ECL: 25 nM c-Myc p27, 5 nM E1, 1 μM E2, 25 nM E3 tetramer, 25 nM Cks1, 2 μM Ub, 100 μM ATP; for inhibition in E3 assay, panel of 41 inhibitors: R140 kinase inhibitor panel + PYR-41
Experimental: FIG. 30 (a): ‘Live’ SCF^Skp2/Cks1 Assay—ECL Inhibitor study—PYR-41 (E1 inhibitor).
FIG. 32: ‘Live’ SCF^Skp2/Cks1 Assay—ECL R140 Kinase inhibit or panel. Used 60 minute incubation; 25 nM c-Myc p27; anti-c-Myc capture for p27 (Millipore 05-274, 1/500); 5 nM E1; 1 μM E2 (HA); 25 nM E3 tetramer; 25 nM Cks1; 2 μM Ub; 100 μM ATP; streptavidin sulfo tag (MSD, R32AD-1, 1 μg/ml).
FIG. 34: ‘Live’ SCF^Skp2/Cks1 Assay—ECL follow up IC50s. Used 60 minute incubation; 25 nM c-Myc p27; anti c-Myc capture for p27 (Millipore 05-274, 1/500); 5 nM E1; 1 μM E2 (HA); 25 nM E3 tetramer; 25 nM Cks1; 2 μM Ub; 100 μM ATP; streptavidin sulfo tag (MSD, R32AD-1, 1 μg/ml). Titration of PYR41 (Calbiochem 662105) from 300 μM to 10 nM (control). Titration of Rottlerin, EGCG, AG538 and K252c from 300 μM to 10 nM.
Each of the assays in the p27 ubiquitination cascade (E1, E2 and E3) were tested against the E1 inhibitor PYR-41. No pre-charging of either the E1 or E2 was carried out prior to the introduction of the compound although in the E3 assay, p27 phosphorylation by CDK2/Cyclin E was carried out in the absence of inhibitor.
In order to test the feasibility of screening the E3 assay against a range of inhibitors, the assay was tested against a panel of 41 inhibitors (40 known kinase inhibitors and PYR-41) (FIG. 31). […] Using the same assay conditions, the E3 assay was tested against these inhibitors (FIG. 33).

T1 sequence (Q13309 whole entry, canonical isoform): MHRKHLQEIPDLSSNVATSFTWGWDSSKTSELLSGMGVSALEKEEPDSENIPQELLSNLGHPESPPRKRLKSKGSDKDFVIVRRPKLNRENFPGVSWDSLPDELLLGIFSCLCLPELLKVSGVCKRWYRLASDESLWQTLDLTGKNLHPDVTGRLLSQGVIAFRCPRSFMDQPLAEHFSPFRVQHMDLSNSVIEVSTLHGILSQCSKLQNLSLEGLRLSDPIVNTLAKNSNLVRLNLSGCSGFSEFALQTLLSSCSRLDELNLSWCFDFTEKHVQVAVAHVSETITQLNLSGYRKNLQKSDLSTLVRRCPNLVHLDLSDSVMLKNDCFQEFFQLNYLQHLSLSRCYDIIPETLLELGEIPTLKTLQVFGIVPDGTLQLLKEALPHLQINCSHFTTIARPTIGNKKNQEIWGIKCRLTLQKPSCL
T1 sequence (P63208 1-160 isoform P63208-2, further chain): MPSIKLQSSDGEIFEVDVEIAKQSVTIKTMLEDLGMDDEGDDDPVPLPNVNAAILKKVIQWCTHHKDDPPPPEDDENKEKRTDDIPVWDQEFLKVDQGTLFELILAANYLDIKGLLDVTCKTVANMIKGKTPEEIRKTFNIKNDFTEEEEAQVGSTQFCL
T1 sequence (Q13616 whole entry, further chain, canonical isoform): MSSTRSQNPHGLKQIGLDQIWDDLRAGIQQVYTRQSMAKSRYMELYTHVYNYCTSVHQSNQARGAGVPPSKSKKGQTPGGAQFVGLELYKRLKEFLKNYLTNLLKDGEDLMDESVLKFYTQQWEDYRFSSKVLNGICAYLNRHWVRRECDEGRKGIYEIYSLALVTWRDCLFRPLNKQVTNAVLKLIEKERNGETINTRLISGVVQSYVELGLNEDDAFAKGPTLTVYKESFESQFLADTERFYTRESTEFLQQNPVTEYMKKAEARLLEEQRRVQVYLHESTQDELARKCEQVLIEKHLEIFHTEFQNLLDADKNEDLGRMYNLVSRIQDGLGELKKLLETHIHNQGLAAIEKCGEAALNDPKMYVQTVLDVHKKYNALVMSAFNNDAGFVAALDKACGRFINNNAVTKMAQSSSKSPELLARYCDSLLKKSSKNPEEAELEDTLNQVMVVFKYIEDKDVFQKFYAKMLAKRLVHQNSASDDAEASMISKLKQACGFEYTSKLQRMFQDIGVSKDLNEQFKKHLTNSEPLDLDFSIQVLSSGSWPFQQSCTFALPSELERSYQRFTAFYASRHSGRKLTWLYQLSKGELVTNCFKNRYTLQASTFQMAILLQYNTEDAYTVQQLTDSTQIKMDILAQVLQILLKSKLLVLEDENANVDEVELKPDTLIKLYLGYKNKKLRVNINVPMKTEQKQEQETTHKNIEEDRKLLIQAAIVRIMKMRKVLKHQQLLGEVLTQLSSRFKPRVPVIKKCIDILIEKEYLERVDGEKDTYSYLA
T1 sequence (P62877 whole entry, further chain, canonical isoform): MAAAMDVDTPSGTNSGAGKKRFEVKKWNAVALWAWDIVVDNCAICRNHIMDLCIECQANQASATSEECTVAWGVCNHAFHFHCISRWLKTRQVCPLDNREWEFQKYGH
T1 sequence (P61024 whole entry, further chain, canonical isoform): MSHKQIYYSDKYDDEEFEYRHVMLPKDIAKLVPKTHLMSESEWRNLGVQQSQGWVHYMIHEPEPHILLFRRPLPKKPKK

Compound | shows up as inhibitor in R140 kinase inhibitor panel | IC50, E3 (SCF^Skp2/Cks1) assay ECL | inhibition in E3 assay, panel of 41 inhibitors
N#C/C(=C\c1ccc(O)c(O)c1)C(=O)c1ccc(O)c(O)c1 [AG538] | show up as inhibitors |  | 
O=C(O[C@@H]1Cc2c(O)cc(O)cc2O[C@@H]1c1cc(O)c(O)c(O)c1)c1cc(O)c(O)c(O)c1 [EGCG] | show up as inhibitors | in the μM range | moderate amounts of inhibition
O=C1NCc2c1c1c3ccccc3[nH]c1c1[nH]c3ccccc3c21 [K252c] | show up as inhibitors | false positive | moderate amounts of inhibition
CCOC(=O)c1ccc(N2NC(=O)/C(=C/c3ccc([N+](=O)[O-])o3)C2=O)cc1 [PYR-41] |  |  | > 80%
CC(=O)c1c(O)c(C)c(O)c(Cc2c(O)c3c(c(C(=O)/C=C/c4ccccc4)c2O)OC(C)(C)C=C3)c1O [Rottlerin] | show up as inhibitors | in the μM range | moderate amounts of inhibition
